ChEMBL document CHEMBL3046545, “Simple and efficient synthetic routes to bioactive s-triazinyl dithiocarbamate derivatives” (2008)

Tests used:
Format in all cases: functional
[1] = test system: Bacillus subtilis; experiment: Antibacterial activity against Bacillus subtilis at […] after 24 hr by agar well diffusion assay
[2] = test system: Streptococcus pyogenes; experiment: Antibacterial activity against Streptococcus pyogenes at […] after 24 hr by agar well diffusion assay
[3] = test system: Escherichia coli; experiment: Antibacterial activity against Escherichia coli at […] after 24 hr by agar well diffusion assay
[4] = test system: Aspergillus niger; experiment: Antifungal activity against Aspergillus niger at […] after 24 hr by agar well diffusion assay

Structure (SMILES) | inhibition zone (IZ) [1] [mm] | inhibition zone (IZ) [2] [mm] | inhibition zone (IZ) [3] [mm] | inhibition zone (IZ) [4] [mm]
O=C(N[C@H](CO)[C@H](O)c1ccc([N+](=O)[O-])cc1)C(Cl)Cl [CHLORAMPHENICOL] | 28 | 22 | 19 | –
Cc1cccc(Nc2nc(SC(=S)Nc3ccc(Cl)cc3)nc(SC(=S)Nc3ccc(Cl)cc3)n2)c1 | 18 | 18 | 15 | 17
Cc1cccc(Nc2nc(Nc3cccc(C)c3)nc(SC(=S)Nc3ccccc3C)n2)c1 | 12 | 11 | 12 | 23
COc1ccccc1NC(=S)Sc1nc(Nc2cccc(C)c2)nc(Nc2cccc(C)c2)n1 | 14 | 14 | 13 | 18
CCOc1ccc(NC(=S)Sc2nc(Nc3cccc(C)c3)nc(SC(=S)Nc3ccc(OCC)cc3)n2)cc1 | 14 | 15 | 16 | 12
Cc1cccc(Nc2nc(SC(=S)Nc3ccccc3[N+](=O)[O-])nc(SC(=S)Nc3ccccc3[N+](=O)[O-])n2)c1 | 14 | 13 | 17 | 19
CC(=O)N(C(C)=O)C(=S)Sc1nc(Nc2cccc(C)c2)nc(Nc2cccc(C)c2)n1 | 12 | 11 | 11 | 14
COc1ccccc1NC(=S)Sc1nc(Nc2cccc(C)c2)nc(SC(=S)Nc2ccccc2OC)n1 | 15 | 11 | 15 | 14
Cc1ccc(NC(=S)Sc2nc(Nc3cccc(C)c3)nc(SC(=S)Nc3ccc(C)cc3)n2)cc1 | 19 | 13 | 13 | 20
CC1(C)S[C@@H]2[C@H](NC(=O)[C@H](N)c3ccccc3)C(=O)N2[C@H]1C(=O)O [AMPICILLIN] | 22 | 26 | 24 | –
Cc1cccc(Nc2nc(SC(=S)NN3CCOCC3)nc(SC(=S)NN3CCOCC3)n2)c1 | 13 | 14 | 12 | 13
CCN(CC)C(=S)Sc1nc(Nc2cccc(C)c2)nc(SC(=S)N(CC)CC)n1 | 12 | 12 | 12 | 13
COC1=CC(=O)C[C@@H](C)[C@]12Oc1c(Cl)c(OC)cc(OC)c1C2=O [GRISEOFULVIN] | – | – | – | 20
CCn1cc(C(=O)O)c(=O)c2cc(F)c(N3CCNCC3)cc21 [NORFLOXACIN] | 19 | 26 | 25 | –
CCOc1ccc(NC(=S)Sc2nc(Nc3cccc(C)c3)nc(Nc3cccc(C)c3)n2)cc1 | 13 | 13 | 14 | 18
Cc1cccc(Nc2nc(SC(=S)Nc3ccc([N+](=O)[O-])cc3)nc(SC(=S)Nc3ccc([N+](=O)[O-])cc3)n2)c1 | 16 | 17 | 15 | 16
Cc1cccc(Nc2nc(Nc3cccc(C)c3)nc(SC(=S)Nc3ccccc3)n2)c1 | 12 | 15 | 13 | 17
Cc1cccc(Nc2nc(Nc3cccc(C)c3)nc(SC(=S)Nc3ccc([N+](=O)[O-])cc3)n2)c1 | 13 | 15 | 13 | 17
Cc1cccc(Nc2nc(SC(=S)Nc3ccccc3C)nc(SC(=S)Nc3ccccc3C)n2)c1 | 19 | 12 | 12 | 13
Cc1cccc(NC(=S)Sc2nc(Nc3cccc(C)c3)nc(Nc3cccc(C)c3)n2)c1 | 14 | 12 | 15 | 20
Cc1cccc(NC(=S)Sc2nc(Nc3cccc(C)c3)nc(SC(=S)Nc3cccc(C)c3)n2)c1 | 13 | 12 | 13 | 14
COc1ccc(NC(=S)Sc2nc(Nc3cccc(C)c3)nc(Nc3cccc(C)c3)n2)cc1 | 12 | 15 | 12 | 17
Cc1cccc(Nc2nc(Nc3cccc(C)c3)nc(SC(=S)Nc3ccccc3[N+](=O)[O-])n2)c1 | 15 | 14 | 15 | 16
COc1ccc(NC(=S)Sc2nc(Nc3cccc(C)c3)nc(SC(=S)Nc3ccc(OC)cc3)n2)cc1 | 15 | 14 | 15 | 15
Cc1ccc(NC(=S)Sc2nc(Nc3cccc(C)c3)nc(Nc3cccc(C)c3)n2)cc1 | 15 | 15 | 19 | 14
Cc1cccc(Nc2nc(Nc3cccc(C)c3)nc(SC(=S)NN3CCOCC3)n2)c1 | 12 | 13 | 12 | 15
Cc1cccc(Nc2nc(Nc3cccc(C)c3)nc(SC(=S)Nc3ccc(Cl)cc3)n2)c1 | 12 | 13 | 15 | 16
Cc1cccc(Nc2nc(SC(=S)Nc3ccccc3)nc(SC(=S)Nc3ccccc3)n2)c1 | 15 | 12 | 12 | 12
